Laboratory results: patent publication US4659712A, “Fodder additive and a process for the preparation” (Richter Gedeon Vegyeszeti Gyar Rt., priority 1984, dated 1987)

Key:
[1] = Quinoxaline-2-carboxylic acid (Carbadox metabolite) residue in pig muscle (ham, chop), liver and kidney after flumecinol treatment; format: in vivo, pigs
Protocol: Tests were carried out at a large-scale pig farm, where 25 mg/kg of body weight of Carbadox admixed with the fodder of the pigs were administered to pigs having a live weight of 40 kg. From a population fed with this fodder 27 animals, each weighing exactly 40 kg, were selected, by weighing them separately. The selected animals were railed off in a place suitable for further tests. From this time on (zero time) the animals were given the same fodder as before, except Carbadox.
The 27 animals were divided into three groups as follows:
Group I: 12 animals (ser. Nos. from 1 to 12) slaughtering: three animals each when starting the experiment (0 time) and on the 1st, 5th and 15th days (positive control group) Group II: 9 amimals (ser. Nos. from 13 to 21) treatment: a single 40 mg/kg of body weight dose of flumecinol at zero time. slaughtering: three animals each on the 1st, 5th and 15th days (group treated with a single dose of flumecinol) Group III: 6 animals (ser. Nos. 22 to 27) treatment: 40 mg/kg of body weight of flumecinol for three days, at zero time and on the 1st and 2nd day slaughtering: three animals each on the 5th and 15th days (group treated with flumecinol three times) Flumecinol is available as a micropellet containing 19.02% of active ingredient. From this and a 1% starch hydrolysate a suspension is prepared, containing 40 mg of flumecinol per 1 ml (dose used for one kg of body weight). The active compound was administered 8 o'clock in the morning, without previous fasting, through a stomach tube, in order to ensure exact conditions for the experiments. The animals were killed and samples were taken from 8 to 11 o'clock in the morning, whereupon the samples were transported into the analytical laboratory within one hour, under cooling.
Quinoxaline-2-carboxylic acid (a metabolite of Carbadox) was determined in the chop, liver and kidney tissues of three animals from each group. Each muscle and liver sample was subjected to organoleptic examination also (boiling test).
The quantity of quinoxaline-2-carboxylic acid was determined essentially following the method described in the USDA Chemistry Laboratory Guidebook (5007 Determination of Carbadox):
Following the alkaline hydrolysis of the muscle, liver and kidney samples, the hydrolysates were strongly acidified and the quinoxaline-2-carboxylic acid was extracted with ethyl acetate. The pH of the ethyl acetate extract was adjusted to 6 with a citric acid buffer, whereupon the mixture was extracted with benzene. In the next step the acid was esterified with a mixture of n-propanol and sulfuric acid, to yield propyl quinoxaline-2-carboxylate. The quantity of the latter compound was determined (after purification by thin layer chromatography) by gas chromatography. This cumbersome test procedure was always performed together with a […] control sample to which a known amount (0.2 μg-1.0 μg) of quinoxaline-2-carboxylic acid (standard) was added. The percentage of the active ingredient recovered from this sample was taken into account when calculating the residual active substance amount. In this way the error of the process was eliminated.
The test results, if not otherwise indicated, are given in μg/kg.
The quantity of quinoxaline-2-carboxylic acid in the above-specified slaughtering times is shownn in Table 1. The tests were carried out on three animals and Table 1 contains the results obtained on the individual animals. The results were also statistically evaluated for the various sorts of tissues, although in this specific case this was not really necessary, since according to the valid prescriptions the products of animal origin should not contain Carbadox at all, i.e. the limit is zero. Therefore, we considered it more important to determine when the animal tissues become entirely Carbadox-free, than to observe the differences among the tissues of the various groups of animals in the time when they were killed.

[2] = tested on: E.coli infections and dysentery; details: pigs; cited from earlier work
[3] = administered as a fodder additive; cited from earlier work
[4] = in vivo; cited from earlier work

| quinoxaline-2-carboxylic acid in muscle, kidney and liver tissues ([1]; Carbadox, no flumecinol, 15th day following termination) | SMILES | quinoxaline-2-carboxylic acid in the kidney ([1]; control group, 15th day) | presence in muscle tissue ([1]; positive control, 15 days after termination of Carbadox administration) | residual concentration, chop vs. ham ([1]; positive control, muscle tissue) | amount of residue in liver, change from initial ([1]; control group, 1st day) | level of residue in liver ([1]; control group, 15th day) | amount of the Carbadox metabolite residue in the liver vs. muscle ([1]; liver) | potency in the treatment and prophylaxis of E.coli infections and dysentery [2] | increasing the weight gain of animals [3] | elimination rate from the animals [4] |
| --- | --- | --- | --- | --- | --- | --- | --- | --- | --- | --- |
| significant amount | O=C(O)c1cnc2ccccc2n1 [quinoxaline-2-carboxylic acid, Quinoxaline-2-carboxylic acid] | detected in the kidney even on the 15th day | present in the muscle tissue even 15 days after the termination of Carbadox administration, in a significant amount | always higher in the chop than in the ham muscle |  |  |  |  |  |  |
|  | COC(=O)NN=Cc1c[n+]([O-])c2ccccc2[n+]1[O-] [Carbadox, 3-(2-quinoxalinylmethylene)-carbazic acid methyl ester N,N'-dioxide, reference compound] |  |  |  | further increased on the 1st day | a level identical with the initial concentration in the muscles | one order of magnitude higher than in the muscle tissue | very potent | one of the most efficious agents employed for increasing the weight gain of animals | eliminated from the animals at a very low rate |
